Measurements from US12077503B2, “Substituted cyclic amides and their use as herbicides” (FMC CORPORATION, priority 2015, dated 2024).

Assays:
Assay type in all cases: in vivo
[1] = tested on: ivy-leaved morning glory (Ipomoea hederacea); assay: Test G Post-Emergence Protocol; details: Ipomoea, post-emergence, 312 h; for pest or weed control at 15.625 g/ha: 15.625 g ai/ha, evaluated after 13 days (100=total damage to plant; 0=no damage to plant), read-out: Morningglory, Ivy-leaved damage rating; for pest or weed control at 62.5 g/ha: 62.5 g ai/ha, read-out: Morningglory, Ivy-leaved damage rating (100=total damage to plant; 0=no damage to plant); for pest or weed control at 62.5 g/ha / pest or weed control at 250 g/ha: evaluated after 13 days; for pest or weed control at 250 g/ha: 250 g ai/ha, read-out: damage to plant, Morningglory, Ivy-leaved (100=total damage to plant; 0=no damage to plant)
Method in brief: (§1)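 Sow in soil; grow 8 d (24/16 °C, 14 h light, 65% humidity); spray 15.625/62.5/250 g/ha in acetone:water 50:50 + 0.5% Tween 20; grow on, water twice daily; score damage 0–100 at 13 d.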

[2] = tested on: velvetleaf (Abutilon theophrasti); assay: Test G Post-Emergence Protocol; details: Abutilon theophrasti, post-emergence, 312 h; for pest or weed control at 15.625 g/ha: 15.625 g ai/ha, evaluated after 13 days (100=total damage to plant; 0=no damage to plant), read-out: Velvetleaf damage rating; for pest or weed control at 62.5 g/ha: 62.5 g ai/ha, read-out: Velvetleaf damage rating (100=total damage to plant; 0=no damage to plant); for pest or weed control at 62.5 g/ha / pest or weed control at 250 g/ha: evaluated after 13 days; for pest or weed control at 250 g/ha: 250 g ai/ha, read-out: damage to plant, Velvetleaf (100=total damage to plant; 0=no damage to plant)
Method in brief: as §1

[3] = tested on: giant foxtail (Setaria faberi); assay: Test G Post-Emergence Protocol; details: Setaria faberi, post-emergence, 312 h; for pest or weed control at 15.625 g/ha: 15.625 g ai/ha, evaluated after 13 days (100=total damage to plant; 0=no damage to plant), read-out: Foxtail, Giant damage rating; for pest or weed control at 62.5 g/ha: 62.5 g ai/ha, read-out: Foxtail, Giant damage rating (100=total damage to plant; 0=no damage to plant); for pest or weed control at 62.5 g/ha / pest or weed control at 250 g/ha: evaluated after 13 days; for pest or weed control at 250 g/ha: 250 g ai/ha, read-out: damage to plant, Foxtail, Giant (100=total damage to plant; 0=no damage to plant)
Method in brief: as §1

[4] = tested on: redroot pigweed (Amaranthus retroflexus); assay: Test G Post-Emergence Protocol; details: Amaranthus retroflexus, post-emergence, 312 h; for pest or weed control at 15.625 g/ha: 15.625 g ai/ha, evaluated after 13 days (100=total damage to plant; 0=no damage to plant), read-out: Pigweed, Redroot damage rating; for pest or weed control at 62.5 g/ha: 62.5 g ai/ha, read-out: Pigweed, Redroot damage rating (100=total damage to plant; 0=no damage to plant); for pest or weed control at 62.5 g/ha / pest or weed control at 250 g/ha: evaluated after 13 days; for pest or weed control at 250 g/ha: 250 g ai/ha, read-out: damage to plant, Pigweed, Redroot (100=total damage to plant; 0=no damage to plant)
Method in brief: as §1

corn (Zea mays) [5] = assay: Test G Post-Emergence Protocol; details: Zea mays, post-emergence, 312 h; for plant injury at 15.625 g/ha: 15.625 g ai/ha, evaluated after 13 days (100=total damage to plant; 0=no damage to plant), read-out: Corn damage rating; for plant injury at 62.5 g/ha: 62.5 g ai/ha, read-out: Corn damage rating (100=total damage to plant; 0=no damage to plant); for plant injury at 62.5 g/ha / plant injury at 250 g/ha: evaluated after 13 days; for plant injury at 250 g/ha: 250 g ai/ha, read-out: damage to plant, Corn (100=total damage to plant; 0=no damage to plant)
Method in brief: as §1

[6] = tested on: barnyardgrass (Echinochloa crus-galli); assay: Test G Post-Emergence Protocol; details: Echinochloa crus-galli, post-emergence, 312 h; for pest or weed control at 15.625 g/ha: 15.625 g ai/ha, evaluated after 13 days (100=total damage to plant; 0=no damage to plant), read-out: Barnyardgrass damage rating; for pest or weed control at 62.5 g/ha: 62.5 g ai/ha, read-out: Barnyardgrass damage rating (100=total damage to plant; 0=no damage to plant); for pest or weed control at 62.5 g/ha / pest or weed control at 250 g/ha: evaluated after 13 days; for pest or weed control at 250 g/ha: 250 g ai/ha, read-out: damage to plant, Barnyardgrass (100=total damage to plant; 0=no damage to plant)
Method in brief: as §1

[7] = tested on: ivy-leaved morning glory (Ipomoea hederacea); assay: Test G Pre-Emergence Protocol; details: Ipomoea, pre-emergence, 312 h, evaluated after 13 days; for pest or weed control at 15.625 g/ha: 15.625 g ai/ha, read-out: Morning-glory, Ivy-leaved damage rating (100=total damage to plant; 0=no damage to plant); for pest or weed control at 62.5 g/ha: 62.5 g ai/ha, 100=total damage to plant, 0=no damage to plant, read-out: plant damage rating, Morningglory, Ivy-leaved; for pest or weed control at 250 g/ha: 250 g ai/ha, read-out: Morningglory, Ivy-leaved damage rating (100=total damage to plant; 0=no damage to plant)
Method in brief: (§2)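 Test compound in 0.5% Tween 20 acetone/water (50:50) was applied at three rates (15.625, 62.5, 250 g/ha) to soil sown one day earlier. After 13 days plants were scored for injury, where 0 means unaffected and 100 means completely damaged.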

[8] = tested on: velvetleaf (Abutilon theophrasti); assay: Test G Pre-Emergence Protocol; details: Abutilon theophrasti, pre-emergence, 312 h, evaluated after 13 days; for pest or weed control at 15.625 g/ha: 15.625 g ai/ha; for pest or weed control at 15.625 g/ha / pest or weed control at 250 g/ha: read-out: Velvetleaf damage rating (100=total damage to plant; 0=no damage to plant); for pest or weed control at 62.5 g/ha: 62.5 g ai/ha, 100=total damage to plant, 0=no damage to plant, read-out: plant damage rating, Velvetleaf; for pest or weed control at 250 g/ha: 250 g ai/ha
Method in brief: as §2

[9] = tested on: giant foxtail (Setaria faberi); assay: Test G Pre-Emergence Protocol; details: Setaria faberi, pre-emergence, 312 h, evaluated after 13 days; for pest or weed control at 15.625 g/ha: 15.625 g ai/ha; for pest or weed control at 15.625 g/ha / pest or weed control at 250 g/ha: read-out: Foxtail, Giant damage rating (100=total damage to plant; 0=no damage to plant); for pest or weed control at 62.5 g/ha: 62.5 g ai/ha, 100=total damage to plant, 0=no damage to plant, read-out: plant damage rating, Foxtail, Giant; for pest or weed control at 250 g/ha: 250 g ai/ha
Method in brief: as §2

[10] = tested on: redroot pigweed (Amaranthus retroflexus); assay: Test G Pre-Emergence Protocol; details: Amaranthus retroflexus, pre-emergence, 312 h, evaluated after 13 days; for pest or weed control at 15.625 g/ha: 15.625 g ai/ha; for pest or weed control at 15.625 g/ha / pest or weed control at 250 g/ha: read-out: Pigweed, Redroot damage rating (100=total damage to plant; 0=no damage to plant); for pest or weed control at 62.5 g/ha: 62.5 g ai/ha, 100=total damage to plant, 0=no damage to plant, read-out: plant damage rating, Pigweed, Redroot; for pest or weed control at 250 g/ha: 250 g ai/ha
Method in brief: as §2

corn (Zea mays) [11] = assay: Test G Pre-Emergence Protocol; details: Zea mays, pre-emergence, 312 h, evaluated after 13 days; for plant injury at 15.625 g/ha: 15.625 g ai/ha; for plant injury at 15.625 g/ha / plant injury at 250 g/ha: read-out: Corn damage rating (100=total damage to plant; 0=no damage to plant); for plant injury at 62.5 g/ha: 62.5 g ai/ha, 100=total damage to plant, 0=no damage to plant, read-out: plant damage rating, Corn; for plant injury at 250 g/ha: 250 g ai/ha
Method in brief: as §2

[12] = tested on: barnyardgrass (Echinochloa crus-galli); assay: Test G Pre-Emergence Protocol; details: Echinochloa crus-galli, pre-emergence, 312 h, evaluated after 13 days; for pest or weed control at 15.625 g/ha: 15.625 g ai/ha, read-out: Barnyard grass damage rating (100=total damage to plant; 0=no damage to plant); for pest or weed control at 62.5 g/ha: 62.5 g ai/ha, 100=total damage to plant, 0=no damage to plant, read-out: plant damage rating, Barnyardgrass; for pest or weed control at 250 g/ha: 250 g ai/ha, read-out: Barnyardgrass damage rating (100=total damage to plant; 0=no damage to plant)
Method in brief: as §2

Row | Compound | pest or weed control at 15.625 g/ha [1] [%] | pest or weed control at 62.5 g/ha [1] [%] | pest or weed control at 250 g/ha [1] [%] | pest or weed control at 15.625 g/ha [2] [%] | pest or weed control at 62.5 g/ha [2] [%] | pest or weed control at 250 g/ha [2] [%] | pest or weed control at 15.625 g/ha [3] [%] | pest or weed control at 62.5 g/ha [3] [%] | pest or weed control at 250 g/ha [3] [%] | pest or weed control at 15.625 g/ha [4] [%] | pest or weed control at 62.5 g/ha [4] [%] | pest or weed control at 250 g/ha [4] [%] | plant injury at 15.625 g/ha (corn (Zea mays) [5]) [%] | plant injury at 62.5 g/ha (corn (Zea mays) [5]) [%] | plant injury at 250 g/ha (corn (Zea mays) [5]) [%] | pest or weed control at 15.625 g/ha [6] [%] | pest or weed control at 62.5 g/ha [6] [%] | pest or weed control at 250 g/ha [6] [%] | pest or weed control at 15.625 g/ha [7] [%] | pest or weed control at 62.5 g/ha [7] [%] | other results
1 | CN1C[C@H](c2ccc(C(F)(F)F)cc2)[C@@H](C(=O)Nc2ccc(Cl)cc2[N+](=O)[O-])C1=O (racemic) [Compound 1432] | 0 | 0 | 0 | 0 | 0 | 0 | 0 | 0 | 0 | 0 | 0 | 0 | 0 | 0 | 0 | 0 | 0 | 0 | 0 | 0 | pest or weed control at 250 g/ha [7]: 0%; pest or weed control at 15.625 g/ha [8]: 0%; pest or weed control at 62.5 g/ha [8]: 0%; pest or weed control at 250 g/ha [8]: 0%; pest or weed control at 15.625 g/ha [9]: 0%; pest or weed control at 62.5 g/ha [9]: 0%; pest or weed control at 250 g/ha [9]: 0%; pest or weed control at 15.625 g/ha [10]: 0%; pest or weed control at 62.5 g/ha [10]: 0%; pest or weed control at 250 g/ha [10]: 0%; plant injury at 15.625 g/ha (corn (Zea mays) [11]): 0%; plant injury at 62.5 g/ha (corn (Zea mays) [11]): 0%; plant injury at 250 g/ha (corn (Zea mays) [11]): 0%; pest or weed control at 15.625 g/ha [12]: 0%; pest or weed control at 62.5 g/ha [12]: 0%; pest or weed control at 250 g/ha [12]: 0%
2 | CN1C[C@H](c2ccc(C(F)(F)F)cc2)[C@@H](C(=O)Nc2ccc(F)c(Cl)c2)C1=O (racemic) [Compound 1434] | 0 | 0 | 0 | 0 | 0 | 10 | 0 | 0 | 30 | 0 | 0 | 20 | 10 | 0 | 10 | 0 | 0 | 20 | 0 | 0 | pest or weed control at 250 g/ha [7]: 0%; pest or weed control at 15.625 g/ha [8]: 0%; pest or weed control at 62.5 g/ha [8]: 0%; pest or weed control at 250 g/ha [8]: 0%; pest or weed control at 15.625 g/ha [9]: 0%; pest or weed control at 62.5 g/ha [9]: 20%; pest or weed control at 250 g/ha [9]: 50%; pest or weed control at 15.625 g/ha [10]: 0%; pest or weed control at 62.5 g/ha [10]: 0%; pest or weed control at 250 g/ha [10]: 0%; plant injury at 15.625 g/ha (corn (Zea mays) [11]): 0%; plant injury at 62.5 g/ha (corn (Zea mays) [11]): 0%; plant injury at 250 g/ha (corn (Zea mays) [11]): 0%; pest or weed control at 15.625 g/ha [12]: 0%; pest or weed control at 62.5 g/ha [12]: 0%; pest or weed control at 250 g/ha [12]: 20%
